The structures appear in SMILES notation. Numbered stars: 1 amine (or outer) side, 2 acyl side, 3 side chain; on linkers, the order of the positions; unused ones are H or OH. Bridge positions count the residues as written; N and C are the ends. Square brackets hold non-standard residues; d marks the D form. Peptide text beside a SMILES is read from it. X1 = CC(C)CCCCCCCCC[C@H](CC(=O)[*:1])O[*:2]

As a reminder, the IC50 is the concentration that gives 50% inhibition.

The first experiment addresses T1, Putative silent information regulator 2 (Leishmania infantum, UniProt A0A6L0XH39).
T1 sequence (A0A6L0XH39 whole entry): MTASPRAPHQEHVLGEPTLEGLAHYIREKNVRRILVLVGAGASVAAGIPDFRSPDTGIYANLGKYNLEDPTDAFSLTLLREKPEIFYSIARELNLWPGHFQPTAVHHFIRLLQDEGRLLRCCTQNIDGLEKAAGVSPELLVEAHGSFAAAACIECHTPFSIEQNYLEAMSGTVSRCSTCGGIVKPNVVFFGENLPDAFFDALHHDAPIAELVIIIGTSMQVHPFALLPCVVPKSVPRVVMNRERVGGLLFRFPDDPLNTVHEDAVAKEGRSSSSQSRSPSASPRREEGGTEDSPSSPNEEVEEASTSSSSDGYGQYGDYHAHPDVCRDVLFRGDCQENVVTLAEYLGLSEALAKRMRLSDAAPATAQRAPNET
Nature of the experiment: Inhibition of Leishmania infantum SIR2RP1.
The compound `O=C1c2cccc3cccc(c23)C(=O)N1CCCNCCCCCCCCCNCCCN1C(=O)c2cccc3cccc(c23)C1=O` [BNIPDANON] yielded an IC50 of 5.7 µM.

`O=C1c2cccc3cccc(c23)C(=O)N1CCCNCCCCCCCCNCCCN1C(=O)c2cccc3cccc(c23)C1=O` [BNIPDAOCT] yielded an IC50 of 9.2 µM.

`NC(=O)c1cccnc1` [NIACINAMIDE] returned a half-maximal inhibitory concentration (IC50) of 39.4 µM. This IC50 is about 4.3-fold higher than that of the compound before.

Compound `CC(NC(=O)c1ccccc1/N=C/c1c(O)ccc2ccccc12)c1ccccc1` (stereo unspecified) [SIRTINOL] returned an IC50 of 194 µM.

In the case of `CC(C)CCCCCCCCC[C@@H]1CC(=O)N[C@@H](CCC(=O)O)C(=O)N[C@@H](CC(C)C)C(=O)N[C@H](CC(C)C)C(=O)N[C@@H](C(C)C)C(=O)N[C@@H](CC(=O)O)C(=O)N[C@H](CC(C)C)C(=O)N[C@@H](CC(C)C)C(=O)O1` [SURFACTIN] (EL[dL]VD[dL]L; linker N-C via X1), half-maximal inhibition (IC50) was put at 35.2 µM. Compared with the last compound, the IC50 is about 5.5-fold lower.

Test system in a further experiment: not listed separately
Nature of the experiment: Inhibition of Plasmodium falciparum NAD-dependent protein deacetylase Sir2A.
`NC(=O)c1cccnc1` [NIACINAMIDE] displayed an IC50 of 51.2 µM.

The values are drawn from ChEMBL document CHEMBL2311430, “Sirtuins as emerging anti-parasitic targets” (Eur J Med Chem, 2013).
